Patent US20250041298A1, “CDK4 INHIBITOR FOR THE TREATMENT OF CANCER” (Pfizer Inc., priority 2021, published 2025)
Read-outs that look alike come from different tables or passages of the source.

Columns and labels:
[1] = Phase 1/1b clinical trial: plasma pharmacokinetics of PF-07220060; format: in vivo, human; conditions: human, plasma
Procedure: Oral PF-07220060 was administered with at least 8 oz (240 mL) of water on an empty stomach (except during the food effect evaluation on Day-7 in Part 1D). No food or liquids other than water was consumed for 2 hours before and 1 hour following each dose throughout the study for BID dosing. No food or liquids other than water was consumed for 2 hours before and 2 hours after each dose throughout the study for QD dosing.
In the ongoing Phase 1/1b Study, as of Aug. 30, 2022, preliminary PK data for PF-07220060 as monotherapy (Part 1A) and in combination with endocrine therapy (Part 1B and Part 1C) was available from 60 participants with advanced solid tumors. PF-07220060 was administered orally as a single agent at doses ranging from 100 to 500 mg BID, and in combination with either letrozole or fulvestrant at 300 to 400 mg BID. Available plasma concentration-time data of PF-07220060 were analyzed using noncompartmental methods.
Preliminary noncompartmental PK analysis was conducted based on available samples collected from participants in the Study. […] Table 4 presents the summary of PK parameters for PF-07220060 as monotherapy, and in combination with letrozole or fulvestrant.

[2] = test system: advanced or metastatic solid tumors; experiment: Phase 1/1b clinical trial: tumor response (best overall response, RECIST 1.1); format: in vivo, human
Source text: The present therapy may result in a complete response (CR), partial response (PR), progressive disease (PD), or stable disease (SD) in patients. Bioimaging can be used to evaluate the level of response to the therapy. Cytology and histology may also be used as needed (e.g., to locate any residual lesions). In some embodiments, the various levels of response can be evaluated in accordance with Table 1 below.
• For Part 1: participant must have evaluable lesion (including skin or bone lesion only). • For Part 2B and Part 2C: participants must have measurable disease as defined per RECIST (Response Evaluation Criteria in Solid Tumors) version 1.1 (Eisenhauer et al., European Journal of Cancer, 2009, 45 (2): 228-47). Tumor lesions previously irradiated or subjected to locoregional therapy will only be deemed measurable if progression at the treated site after completion of therapy is clearly documented.

[3] = Part 1D food effect cohort (n = 6)
[4] = Total, all cohorts (27 patients)
[5] = Total, all cohorts (35 patients)
[6] = confirmed best overall response, Part 1D food effect cohort (n = 6)
[7] = confirmed best overall response, Total Part 1A (single agent), 1B, 1C, 1B + 1C, by label
[8] = confirmed best overall response, Total, all cohorts (n = 70)

CC(C)n1c(C(C)(C)O)nc2c(F)cc(-c3nc(N[C@@H]4CCOC[C@H]4O)ncc3Cl)cc21 [PF-07220060, 1,5-anhydro-3-({5-chloro-4-[4-fluoro-2-(2-hydroxypropan-2-yl)-1-(propan-2-yl)-1H-benzimidazol-6-yl]pyrimidin-2-yl}amino)-2,3-dideoxy-D-threo-pentitol]
AUC ([1]; po, 400 mg BID oral + letrozole (Part 1B), C1D1 post first dose, geometric mean, read-out: AUC12): 7110 ng·h/mL
Tmax ([1]; po, 400 mg BID oral + letrozole (Part 1B), C1D1 post first dose, median, read-out: Tmax): 2.2 h
AUC ([1]; po, 400 mg BID oral + letrozole (Part 1B), C1D15, geometric mean, read-out: AUCtau): 11500 ng·h/mL
Cmax ([1]; po, 400 mg BID oral + letrozole (Part 1B), C1D15 post multiple doses, geometric mean): 1420 ng/mL
Tmax ([1]; po, 400 mg BID oral + letrozole (Part 1B), C1D15 post multiple doses, median, read-out: Tmax): 1.6 h
AUC ([1]; po, 400 mg BID, 400 mg BID oral + fulvestrant (Part 1C), C1D15, geometric mean, read-out: AUCtau): 9560 ng·h/mL
Cmax ([1]; po, 400 mg BID, 400 mg BID oral + fulvestrant (Part 1C), C1D15 post multiple doses, geometric mean): 1380 ng/mL
Tmax ([1]; po, 400 mg BID, 400 mg BID oral + fulvestrant (Part 1C), C1D15 post multiple doses, median, read-out: Tmax): 1.1 h
Cmax ([1]; po, 400 mg, 400 mg BID oral monotherapy (Part 1A), C1D1 post first dose, geometric mean): 766 ng/mL
AUC ([1]; po, 400 mg, 400 mg BID oral monotherapy (Part 1A), C1D1 post first dose, geometric mean, read-out: AUC12): 5110 ng·h/mL
Tmax ([1]; po, 400 mg, 400 mg BID oral monotherapy (Part 1A), C1D1 post first dose, median, read-out: Tmax): 2.1 h
half-life ([1]; po, 400 mg, 400 mg BID oral monotherapy (Part 1A), C1D15, arithmetic mean, n = 2): 6.6 h
AUC ([1]; po, 400 mg, 400 mg BID oral monotherapy (Part 1A), C1D15, geometric mean, read-out: AUCtau): 8000 ng·h/mL
Cmax ([1]; po, 400 mg, 400 mg BID oral monotherapy (Part 1A), C1D15 post multiple doses, geometric mean): 949 ng/mL
Tmax ([1]; po, 400 mg, 400 mg BID oral monotherapy (Part 1A), C1D15 post multiple doses, median, read-out: Tmax): 1 h
Cmax ([1]; po, 500 mg, 500 mg BID oral monotherapy (Part 1A), C1D1 post first dose, geometric mean): 637 ng/mL
AUC ([1]; po, 500 mg, 500 mg BID oral monotherapy (Part 1A), C1D1 post first dose, geometric mean, read-out: AUC12): 4170 ng·h/mL
Tmax ([1]; po, 500 mg, 500 mg BID oral monotherapy (Part 1A), C1D1 post first dose, median, read-out: Tmax): 1.9 h
AUC ([1]; po, 500 mg, 500 mg BID oral monotherapy (Part 1A), C1D15, n = 1, read-out: AUCtau): 12500 ng·h/mL
Cmax ([1]; po, 500 mg, 500 mg BID oral monotherapy (Part 1A), C1D15 post multiple doses, geometric mean): 1760 ng/mL
Tmax ([1]; po, 500 mg, 500 mg BID oral monotherapy (Part 1A), C1D15 post multiple doses, median, read-out: Tmax): 4 h
Tmax ([1]; po, following oral dose administration, across cohorts (100 to 500 mg BID), read-out: median Tmax values): 1 to 4 h
concentration at 15 day ([1]; 100 mg BID oral monotherapy (Part 1A), C1D15, geometric mean, read-out: Cmin): 231 ng/mL
Objective Response (CR + PR) for Patients without Breast Cancer, % ([2]; Part 1D food effect cohort (5 patients)): (20.0) %
Disease Control (CR + PR + SD + Non-CR/Non-PD), % [2, 3]: (50.0) %
Objective Response (CR + PR), % [2, 3]: (16.7) %
Clinical Benefit Response, % ([2]; Patients with Breast Cancer (with Measurable Disease at Baseline), Total Part 1A (single agent), 1B, 1C, 1B + 1C, by label): (40.0) %
Clinical Benefit Response, % ([2]; Patients with Breast Cancer (with Measurable Disease at Baseline), Total, all cohorts (27 patients)): (48.1) %
Clinical Benefit Response, % ([2]; Patients with Breast Cancer, Total Part 1A (single agent), 1B, 1C, 1B + 1C, by label): (25.0) %
Clinical Benefit Response, % ([2]; Patients with Breast Cancer, Total, all cohorts (35 patients)): (40.0) %
Objective Response (CR + PR) for Patients with Breast Cancer (with Measurable Disease at Baseline), % [2, 4]: (22.2) %
Objective Response (CR + PR) for Patients with prior CDK4/6 inhibitor (with Measurable Disease at Baseline), % [2, 4]: (22.2) %
Objective Response (CR + PR) for Patients with Breast Cancer, % [2, 5]: (17.1) %
Objective Response (CR + PR) for Patients without Breast Cancer, % [2, 5]: (2.9) %
Disease Control (CR + PR + SD + Non-CR/Non-PD), % ([2]; Total, all cohorts (n = 70)): (65.7) %
Objective Response (CR + PR), % ([2]; Total, all cohorts (n = 70)): (10.0) %
Disease Control (CR + PR + SD + Non-CR/Non-PD), % ([2]; Total, all cohorts (n = 70), listed as PF-06873600): 65.7%
Clinical Benefit Response, % ([2]; all evaluable patients, Part 1D food effect cohort (n = 6)): (33.3) %
Clinical Benefit Response, % ([2]; all evaluable patients, Total Part 1A (single agent), 1B, 1C, 1B + 1C, by label): (26.3) %
Clinical Benefit Response, % ([2]; all evaluable patients, Total, all cohorts (n = 70)): (34.3) %
Non-CR/Non-PD, % [2, 6]: (16.7) %
Not evaluable (NE), % [2, 6]: (16.7) %
Partial response (PR), % [2, 6]: (16.7) %
Progressive disease (PD), % [2, 6]: (33.3) %
Stable disease (SD), % [2, 6]: (16.7) %
Non-CR/Non-PD, % [2, 7]: (10.5) %
Not evaluable (NE), % [2, 7]: (23.7) %
Progressive disease (PD), % [2, 7]: (15.8) %
Stable disease (SD), % [2, 7]: (47.4) %
Complete response (CR), % [2, 8]: (1.4) %
Non-CR/Non-PD, % [2, 8]: (11.4) %
Not evaluable (NE), % [2, 8]: (14.3) %
Partial response (PR), % [2, 8]: (8.6) %
Progressive disease (PD), % [2, 8]: (18.6) %
Stable disease (SD), % [2, 8]: (44.3) %
